# Reference: BindingDB's records for doi:10.1021/ml100146z (2010)
# Target: Signal transducer and activator of transcription 3 (Homo sapiens, UniProt P40763)
# Assay: Inhibition of STAT3 in human HeLa cells after 24 hrs by luciferase reporter gene assay
# Signal transducer and activator of transcription 3, sequence (P40763 whole entry): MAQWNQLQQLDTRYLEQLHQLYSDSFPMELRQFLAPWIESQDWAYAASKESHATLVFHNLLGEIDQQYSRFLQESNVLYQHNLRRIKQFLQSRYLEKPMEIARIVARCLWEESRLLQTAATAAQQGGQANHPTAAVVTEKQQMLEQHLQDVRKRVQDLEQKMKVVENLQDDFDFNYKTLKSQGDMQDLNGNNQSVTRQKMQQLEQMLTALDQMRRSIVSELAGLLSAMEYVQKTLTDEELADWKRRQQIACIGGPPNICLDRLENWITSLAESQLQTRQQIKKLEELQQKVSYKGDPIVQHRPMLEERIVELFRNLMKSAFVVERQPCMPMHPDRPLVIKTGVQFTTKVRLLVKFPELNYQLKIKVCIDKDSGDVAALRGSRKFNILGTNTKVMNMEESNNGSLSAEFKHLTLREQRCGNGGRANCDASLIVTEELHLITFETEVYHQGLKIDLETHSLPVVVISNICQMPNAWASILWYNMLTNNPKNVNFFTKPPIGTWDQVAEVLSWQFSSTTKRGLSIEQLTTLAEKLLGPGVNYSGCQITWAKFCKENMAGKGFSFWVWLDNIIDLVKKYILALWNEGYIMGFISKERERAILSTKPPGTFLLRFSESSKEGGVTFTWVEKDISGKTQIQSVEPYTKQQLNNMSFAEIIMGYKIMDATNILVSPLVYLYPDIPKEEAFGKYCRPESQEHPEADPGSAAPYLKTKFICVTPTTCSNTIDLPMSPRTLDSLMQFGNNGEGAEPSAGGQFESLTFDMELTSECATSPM
structure (smiles),measurement,value
O=C(Nc1ccc([N+](=O)[O-])cc1Cl)c1cc(Cl)ccc1O [5-chloro-N-(2-chloro-4-nitrophenyl)-2-hydroxybenzamide],IC50,250 nM
